Earlier results, collected in US20260009079A1, “BIOMARKERS OF PREGNANCY LOSS” (The University of Warwick, priority 2022, published 2026).

Tested on: bone marrow-derived MSCs
Details: given over 3 menstrual cycles; previously reported (Tewary et al., 2020)

N[C@@H](CC(=O)N1CCn2c(nnc2C(F)(F)F)C1)Cc1cc(F)c(F)cc1F [sitagliptin]
recruitment of bone marrow-derived MSCs: increases
